Data set [1] can be described thus: HPLC of media supernatant from U2-OS cell culture (degradation). Type of data set: physicochemical. The settings on record: 10µM.
In data set [2] the test system is NF-κB subunit p65 phosphorylation (S536). In words: Western blot of p65 phosphorylation (S536) after TNFα in U2-OS cells. Type of data set: cell-based. The settings on record: 1-hour pre-treatment, TNFα 10 ng/ml, 20 min. As for the experimental part:
Fig.1: Identification of inhibitors specific for DNA damage-induced NF-κB activity. (A) Flowchart representing the high-throughput chemical library screening. A screen/counter-screen strategy was used by stimulating NF-κB in U2-OS cells with etoposide (50 µM for 90 min) and hits were counter-screened with TNFα (10 ng/ml for 20 min). Cells were pre-treated with compounds (10 µM) for 1 hour before stimulation, fixed, and percent p65 nuclear translocation measured by fluorescence microscopy. IC50 values were used for final selection. (B) Comparison of mean p65 nuclear translocation following either etoposide or TNFa stimulation after treatment with each counter-screened hit compound. Values were normalized to etoposide or TNFα positive controls. Specific inhibitors (red) of DNA damage-induced NF-κB signaling were defined by setting cut-off criteria (black line). […] (C) IC50 determination for MW01 (left) and MW05 (right) of p65 nuclear translocation, following either etoposide or TNFα treatment. […] IC50 noted with a dotted line. […] (E) Western blot analysis (top) and quantification (bottom) of NF-κB subunit p65 phosphorylation (S536) following 1-hour pre-treatment with DMSO, MW01 (10 µM), or MW05 (10 µM), in unstimulated, after 90 min irradiation (IR, 20 Gy), or after 20 min TNFα (10 ng/mL) conditions in U2- OS cells. […]
NF-κB was stimulated by DNA damage through either 20 Gy irradiation (IR) and analyzed after 90 minutes or by 10 ng/ml TNFα and analyzed after 20 minutes unless otherwise noted. […]
Cells were collected by scraping and lysed in Baeuerle lysis buffer supplemented with Protease (Thermo Fisher Scientific, 78429) and Phosphatase (Thermo Fisher Scientific, 78420) inhibitors after the appropriate treatment and time point. Proteins were quantified by Bradford assay (Bio-Rad, 5000006) and 20-50 µg of extracted proteins were loaded on 4-20% Protein Gel (Bio-Rad, 4568096) and then transferred onto a PVDF membrane (Bio-Rad, 1620177) using Tris-Glycine buffer with 20% of methanol. […]

Regarding `COc1ccc2c(c1OC)c(=O)n1c3ccc(O)cc3c3ccnc2c31` [MW01, 5-Hydroxy-10,11-dimethoxy-9H-benzo[c]indolo[3,2,1-ij][1,5]naphthyridin-9-one], in data set [1], the “degradation in cell culture conditions” value is given as “minimal degradation”. Besides, the “phosphorylation of p65 at serine 536, TNFα-stimulated” value in data set [2] is reported as “untouched”.
For the compound `COc1ccc2cc3c(N)nn(C(=O)c4cccc(N(C)C)c4)c3nc2c1` [MW05, (3-Amino-7-methoxypyrazolo[3,4-b]quinolin-1-yl)-[3-(dimethylamino)phenyl]methanone], the “degradation in cell culture conditions” value in data set [1] is reported as “minimal degradation”. Moreover, the “phosphorylation of p65 at serine 536, TNFα-stimulated” value in data set [2] is “untouched”.

The values above are taken from EP4467141A1, “PYRAZOLO-QUINOLINES AS SELECTIVE INHIBITORS OF GENOTOXIC STRESS-INDUCED IKK/NF- KB PATHWAYS FOR CANCER THERAPY” (Max-Delbrück-Centrum für Molekulare Medizin in der …, priority 2023, dated 2024).
